“Also recorded” adds a separate entry of the source.
How the values were obtained:
[1] = system: human PWS fibroblasts; assay: Chromatin immunoprecipitation (ChIP-qPCR) of H3K9me2/H3K9me3; type: cell-based
Method: Histone methylations on the SNRPN locus in human fibroblasts were analyzed by chromatin immunoprecipitation assay (ChIP) using the protocol as previously reported (see Fulmer-Smentek et al., Human molecular genetics 10, 645-652 (2001)). ChIP assay was performed using ChIP-IT Express magnetic kit (Active Motif) according to the manufacturer's instructions with modification for the fixation and reverse-crosslinking steps. Briefly, native chromatin was prepared without fixation and enzymatic digestions to average 150-500 bp sized chromatin. 20 μg of chromatin was added to the specific antibodies (2 μg) or species control isotype antibodies for each immunoprecipitation reaction. The antibody-chromatin complexes were bound to protein G magnetic beads for recovering chromatin immunoprecipitates. RNase- and proteinase K-treated DNA was purified using PCR purification columns (Promega). DNA recovery was quantified by real time PCR performed on the LightCycler480 instrument (Roche) using SsoAdvanced Universal SYBR green Supermix (Biorad). Antibodies were anti-rabbit acetylated H3 (Millipore 06-599), anti-mouse monoclonal Histone H3 dimethyl K9 (Abcam 1220) and Histone H3 trimethyl K9 (Millipore, 07-442) antibodies. qPCR reactions were performed with the following cycling parameters: at 95° C./5 min followed by 40 cycles of 95° C./30 sec, 60° C./60 sec. Data was normalized to the total input.

[2] = system: m+/pΔS-U mice; assay: RNA and protein expression in PWS mouse tissues; type: in vivo
Method: For testing long lasting drug effects, the 6 week-old m^S-EGFP/p^+ mice were treated daily by i.p. injection for seven consecutive days.
Western blot analysis was performed as previously described by Wang, et al., Molecular Autism 5, 30 (2014). Briefly, total protein was extracted from collected tissues (liver and brain) using modified RIPA buffer (1× PBS, 1% Triton X-100, 0.1% SDS, 2 mM EDTA, and protease inhibitors). SDS-PAGE resolved 25 μg of total proteins and they were transferred to polyvinylidene difluoride (PVDF) membranes. The PVDF membranes were blocked with BLOTTO (5% skim milk and 0.1% Tween-20 in 1× TBS buffer), and incubated with primary target antibodies, rabbit anti-Snrpn (Protein Tech, cat. no. 11070-1-AP) at 1:400, and rabbit anti-Ube3a (Bethyl Lab, cat. no. A300-352A-T) at 1:1,000 working concentration in BLOTTO at 4° C. overnight. The next day, following incubation with horseradish peroxidase-conjugated secondary antibodies, the membranes were incubated with a Pierce chemiluminescent substrate and exposed to X-ray film or imaged by AI600 (GE Healthcare Life Science).
For reverse-transcription PCR (RT-PCR) and quantitative real time RT-PCR (qRT-PCR), first total RNA was extracted from the fibroblasts and/or collected tissues (liver and brain) using Direct-zol RNA Miniprep kit (Zymo Research cat. no. R2070). 2 μg of total RNA was directly used for single strand cDNA synthesis with Superscript III reverse transcriptase (Invitrogen cat. no. 18080-093) according to the manufacturer's protocols. The conditions for RT-PCR were 95° C./5 min, 35-40 cycles of 95° C./30 sec, 56-60° C./60 sec, 72° C./60 sec. Quantification of target gene expression was performed in a LightCycler480 instrument (Roche) using SsoAdvanced Universal SYBR green Supermix (Biorad cat. no. 172-5271) according to the manufacturer's instructions. See Table 4 for primer sequences and conditions used for experiments for RT-PCR, qRT-PCR, bisulfite genomic sequencing, ChIP-qPCR, and chromatin accessibility assay.

[3] = target: T1, G9a (Mus musculus, UniProt Q9Z148); settings: single dose of 5 mg/kg i.p.; cited from earlier work
T1 construct: from tissue
T1 sequence (Q9Z148 1-1263): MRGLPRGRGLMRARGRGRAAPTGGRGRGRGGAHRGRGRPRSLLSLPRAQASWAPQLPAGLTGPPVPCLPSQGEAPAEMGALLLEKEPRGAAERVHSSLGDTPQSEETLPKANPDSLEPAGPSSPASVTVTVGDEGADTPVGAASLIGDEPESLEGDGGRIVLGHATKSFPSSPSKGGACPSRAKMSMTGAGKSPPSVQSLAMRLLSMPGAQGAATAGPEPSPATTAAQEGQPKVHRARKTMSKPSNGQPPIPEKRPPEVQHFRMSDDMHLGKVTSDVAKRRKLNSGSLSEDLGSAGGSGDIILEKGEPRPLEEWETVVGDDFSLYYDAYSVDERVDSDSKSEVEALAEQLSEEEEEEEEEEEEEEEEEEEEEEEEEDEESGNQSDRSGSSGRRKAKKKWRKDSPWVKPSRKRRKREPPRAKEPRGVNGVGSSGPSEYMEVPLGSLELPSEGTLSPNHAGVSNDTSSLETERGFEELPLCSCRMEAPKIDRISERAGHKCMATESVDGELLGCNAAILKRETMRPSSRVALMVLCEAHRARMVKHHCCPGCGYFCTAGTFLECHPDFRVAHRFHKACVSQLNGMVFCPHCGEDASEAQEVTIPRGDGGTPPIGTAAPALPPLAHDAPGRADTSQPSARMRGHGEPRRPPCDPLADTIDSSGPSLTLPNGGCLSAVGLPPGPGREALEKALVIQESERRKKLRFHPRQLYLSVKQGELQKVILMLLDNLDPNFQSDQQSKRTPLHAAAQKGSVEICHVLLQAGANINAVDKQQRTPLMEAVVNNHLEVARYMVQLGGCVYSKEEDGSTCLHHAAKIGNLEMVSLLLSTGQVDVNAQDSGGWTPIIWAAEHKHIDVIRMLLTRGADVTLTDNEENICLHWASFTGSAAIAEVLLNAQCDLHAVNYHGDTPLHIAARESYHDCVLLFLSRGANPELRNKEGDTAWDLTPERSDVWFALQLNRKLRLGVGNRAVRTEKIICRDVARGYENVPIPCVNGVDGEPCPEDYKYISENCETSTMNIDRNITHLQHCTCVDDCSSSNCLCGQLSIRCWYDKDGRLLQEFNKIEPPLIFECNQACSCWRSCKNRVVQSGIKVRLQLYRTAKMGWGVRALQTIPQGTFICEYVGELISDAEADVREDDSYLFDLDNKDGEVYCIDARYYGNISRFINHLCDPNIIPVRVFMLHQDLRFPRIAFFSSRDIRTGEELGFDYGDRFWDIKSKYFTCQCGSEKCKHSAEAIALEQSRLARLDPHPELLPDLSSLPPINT

[4] = system: several cell lines; settings: cited from earlier work
[5] = system: m+/pΔS-U mice; assay: Survival and growth in PWS mouse model; type: in vivo; settings: between P10 and P19, treated m+/pΔS-U pups
Method: The dosage and duration vary depending on the age and condition of animals.
The m/p^ΔS-U pups were treated between postnatal day 7 (P7) and P12, as most m^+/p^ΔS-U pups died before weaning. For neonatal PWS mice, a lower dose regimen of 2.5 mg/kg i.p. injections for 5 consecutive days was used. […] Pups at postnatal day 7 (P7) were treated with a daily dose of 2.5 mg/kg for 5 days.

[6] = in vivo; cited from earlier work

| Compound | H3K9me2 in the region associated with NDN [1] | H3K9me2 enriched at the PWS-IC after treatment ([1]; ChIP-qPCR, reduction from 17-fold untreated, p<0.05) | H3K9me3 at host transcript of SNORD116 after treatment ([1]; ChIP-qPCR, reduction from 24-fold untreated, p<0.05) | H3K9me2 at host transcript of SNORD116 after treatment ([1]; ChIP-qPCR, reduction from 122-fold untreated, p<0.05) | level of H3K9me2 (and H3K9me3) in the PWS-IC ([1]; in words) | level of Ube3a-AS RNA ([2]; brain) | expression of Snrpn and Snord116 ([2]; brain and liver, around P14, RT-PCR and qRT-PCR) | Ube3a protein level ([2]; whole brain and cerebellum) | inhibition of G9a activity in adult mice [3] | cell toxicity [4] | growth (body weight) [5] | pharmacokinetic properties such as central nervous system penetration [6] |
| --- | --- | --- | --- | --- | --- | --- | --- | --- | --- | --- | --- | --- |
| COc1cc2c(NC3CCN(C(C)C)CC3)nc(C3CCCCC3)nc2cc1OCCCN1CCCC1 [UNC0638] | reduced | 3 fold | 2 fold | 4 fold | drastically reduced | – | – | – | – | – | – | – |
| COc1cc2c(NC3CCN(C(C)C)CC3)nc(N3CCC(F)(F)CC3)nc2cc1OCCCN1CCCC1 [UNC0642] | – | – | – | – | – | not affected | readily detectable | not changed; also recorded: not affected | sufficient to inhibit G9a activity | low cell toxicity | significant improvement of growth | superior to UNC0638 |
